Article PMC6071264 (Toxins, 2018)
Bridge positions count the residues as written; N and C are the ends. Peptide text beside a SMILES is read from it.

Key:
T84 cells = T84 cells (Homo sapiens, UniProt P25092); test: T84 cell assay (cGMP response); type: cell-based; conditions: read-out: EC50 in the T84 cell assay, pre-incubation 1 mM IBMX 10 min, sample 60 min at 37 °C, cGMP enzyme immunoassay, three independent experiments, four-parameter logistic regression, bottom set to zero, Figure 2C
[1] = system: C30 anti-STp monoclonal antibody; conditions: read-out: IC50, inhibition of C30 mAb binding to ELISA coating (peptides from RP-HPLC peaks)

T84 cells, sequence (P25092 24-1073): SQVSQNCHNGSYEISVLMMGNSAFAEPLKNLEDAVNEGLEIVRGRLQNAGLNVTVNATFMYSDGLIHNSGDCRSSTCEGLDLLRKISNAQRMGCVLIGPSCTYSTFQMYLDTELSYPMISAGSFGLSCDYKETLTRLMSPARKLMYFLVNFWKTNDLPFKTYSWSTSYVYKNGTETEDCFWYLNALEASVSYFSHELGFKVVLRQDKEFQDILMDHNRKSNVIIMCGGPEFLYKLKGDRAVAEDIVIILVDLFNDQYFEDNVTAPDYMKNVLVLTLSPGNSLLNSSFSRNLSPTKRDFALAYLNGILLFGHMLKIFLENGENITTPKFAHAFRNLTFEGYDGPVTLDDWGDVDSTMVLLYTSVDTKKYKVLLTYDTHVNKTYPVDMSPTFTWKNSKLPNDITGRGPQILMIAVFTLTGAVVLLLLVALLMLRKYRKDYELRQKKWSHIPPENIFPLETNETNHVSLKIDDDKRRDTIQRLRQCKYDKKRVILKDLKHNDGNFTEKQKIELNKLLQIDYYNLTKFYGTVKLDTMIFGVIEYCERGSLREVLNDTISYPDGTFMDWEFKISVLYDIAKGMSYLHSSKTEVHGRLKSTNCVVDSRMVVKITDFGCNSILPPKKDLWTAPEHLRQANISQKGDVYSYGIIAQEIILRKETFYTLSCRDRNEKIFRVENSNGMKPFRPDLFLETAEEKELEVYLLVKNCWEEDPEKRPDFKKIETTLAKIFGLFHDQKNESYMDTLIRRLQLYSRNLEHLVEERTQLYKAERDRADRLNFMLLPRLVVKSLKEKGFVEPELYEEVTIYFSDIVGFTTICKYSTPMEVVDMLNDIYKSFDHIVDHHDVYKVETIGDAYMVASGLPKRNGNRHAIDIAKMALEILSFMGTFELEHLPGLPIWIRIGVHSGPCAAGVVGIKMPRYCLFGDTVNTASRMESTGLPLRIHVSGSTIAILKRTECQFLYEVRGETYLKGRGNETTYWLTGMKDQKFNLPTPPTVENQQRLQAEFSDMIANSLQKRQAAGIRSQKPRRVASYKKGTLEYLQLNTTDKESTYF

Structure (SMILES) | EC50 (T84 cells) | IC50 [1]
CC(C)C[C@@H]1NC(=O)[C@H](CCC(=O)O)NC(=O)[C@@H]2CSSC[C@@H]3NC(=O)[C@H](C)NC(=O)[C@@H]4CCCN4C(=O)[C@H](CC(N)=O)NC(=O)[C@H](CSSC[C@H](NC(=O)[C@H](Cc4ccc(O)cc4)NC(=O)[C@H](CC(N)=O)NC(=O)[C@H](CO)NC(=O)[C@H](CO)NC(=O)[C@@H](N)CC(N)=O)C(=O)N2)NC(=O)[C@H](CSSC[C@@H](C(=O)N[C@@H](Cc2ccc(O)cc2)C(=O)O)NC(=O)CNC(=O)[C@H]([C@@H](C)O)NC3=O)NC1=O [ETEC STh] (H-NSSNYCCELCCNPACTGCY-OH; disulfide 6-11, 7-15, 10-18; N-terminus and C-terminus assumed) | 22.9 ± 6.8 nM | –
CC(C)C[C@@H]1NC(=O)[C@H](CCC(=O)O)NC(=O)[C@@H]2CSSC[C@@H]3NC(=O)[C@H](C)NC(=O)[C@@H]4CCCN4C(=O)[C@H](CC(N)=O)NC(=O)[C@H](CSSC[C@H](NC(=O)[C@H](Cc4ccc(O)cc4)NC(=O)[C@H](CC(N)=O)NC(=O)[C@H](CO)NC(=O)[C@H](CO)NC(=O)[C@@H](N)CC(N)=O)C(=O)N2)NC(=O)[C@H](CSSC[C@@H](C(=O)N[C@@H](Cc2ccc(O)cc2)C(=O)O)NC(=O)CNC(=O)[C@H]([C@@H](C)O)NC3=O)NC1=O [STh] (H-NSSNYCCELCCNPACTGCY-OH; disulfide 6-11, 7-15, 10-18) | 15.4 ± 3 nM | 4.2 ± 0.3 nM
CC(C)C[C@@H]1NC(=O)[C@H](CCC(=O)O)NC(=O)[C@@H]2CSSC[C@@H]3NC(=O)[C@H](C)NC(=O)[C@@H]4CCCN4C(=O)[C@H](CC(N)=O)NC(=O)[C@H](CSSC[C@H](NC(=O)[C@H](Cc4ccc(O)cc4)NC(=O)[C@H](Cc4ccccc4)NC(=O)[C@@H](NC(=O)[C@@H](N)CC(N)=O)[C@@H](C)O)C(=O)N2)NC(=O)[C@H](CSSC[C@@H](C(=O)N[C@@H](Cc2ccc(O)cc2)C(=O)O)NC(=O)CNC(=O)[C@H](C)NC3=O)NC1=O [STp] | 15.4 ± 3.8 nM | –
CC(C)C[C@@H]1NC(=O)[C@H](CCC(=O)O)NC(=O)[C@@H]2CSSC[C@@H]3NC(=O)[C@H](C)NC(=O)[C@@H]4CCCN4C(=O)[C@H](CC(N)=O)NC(=O)[C@H](CSSC[C@H](NC(=O)[C@H](Cc4ccc(O)cc4)NC(=O)[C@H](CC(N)=O)NC(=O)[C@H](CO)NC(=O)[C@H](CO)NC(=O)[C@@H](N)CC(N)=O)C(=O)N2)NC(=O)[C@H](CSSC[C@@H](C(=O)N[C@@H](Cc2ccc(O)cc2)C(=O)O)NC(=O)CNC(=O)[C@H]([C@@H](C)O)NC3=O)NC1=O [synthetic STh] (H-NSSNYCCELCCNPACTGCY-OH; disulfide 6-11, 7-15, 10-18) | 9.6 ± 1.8 nM | 2.3 ± 0.1 nM
